Reference: patent US5756471A, “Use of a sophorolipid to provide free radical formation inhibiting activity or elastase inhibiting activity” (Institut Francais du Petrole, priority 1994, dated 1998)

Assays:
human fibroblasts = test: Anti-radical effect on human fibroblasts (UVA); conditions: 200 μg/ml, in the absence of UVA
elastase = test: Anti-elastasic activity on human skin section
Source text: The elastin substrate was that which exists in human skin.
That result was expected and acted to validate the test.

pancreatic elastase = pancreatic elastase (Sus scrofa, UniProt P00772); test: Anti-elastasic activity, test in semi-solid medium (elastin in gelose); type: biochemical; conditions: 10 mM
Method: Principle: Inhibition of the degradation of elastin contained in gelose by elastase
The anti-elastase activity of acid sophorolipids was evaluated using a semi-quantitative technique. The enzymatic solution, associated or otherwise with the test compound or with the reference molecule, was deposited in hollows in gelose containing the substrate, elastin.
The enzyme diffused into the gelose and digested the elastin.
This phenomenon was shown as a lightening of the gelose in the digestion zone, which zone was measured.

[1] = Anti-radical activity (EPR method); conditions: hydroxyl radical EPR signal
Method: The anti-radical effect of crude and acid sophorolipids was evaluated with respect to a free radical derived from oxygen and which is particularly important in pathology, namely the hydroxyl radical. Electron paramagnetic resonance spectrometry (EPR) was used. A molecule which traps free radicals reduces the signal. EPR measurements were carried out using a Brucker ECS106 spectrometer at ambient temperature. The hydroxyl radical (OH^.) was produced by photolysis (UVB) of hydrogen peroxide in aqueous solution. Mannitol was used as a reference molecule (positive control).

Chain of pancreatic elastase (P00772 27-266): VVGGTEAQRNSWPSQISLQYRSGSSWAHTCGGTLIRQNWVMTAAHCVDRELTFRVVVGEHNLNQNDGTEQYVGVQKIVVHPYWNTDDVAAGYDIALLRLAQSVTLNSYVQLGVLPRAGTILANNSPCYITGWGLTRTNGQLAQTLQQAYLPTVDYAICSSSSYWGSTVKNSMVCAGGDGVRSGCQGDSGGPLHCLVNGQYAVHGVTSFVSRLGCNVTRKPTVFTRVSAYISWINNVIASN

CC(=O)Oc1c(C)c(C)c2c(c1C)CCC(C)(CCC[C@H](C)CCC[C@H](C)CCCC(C)C)O2 (some centres unmarked) [Acetate of vitamin E, acetate of vitamin E]
toxicity for cells (human fibroblasts): not toxic

[Cl][Hg][Cl] [HgCl2, mercury chloride]
Degradation of elastin fibres (elastase; 0.125 % (w/v)): None | inhibition of elastase activity (elastase; reference molecule): dose-dependent manner | enzymatic inhibition (pancreatic elastase): total | Diameter of digestion zone (pancreatic elastase; 6 hours incubation): 0 cm | Diameter of digestion zone (pancreatic elastase; 21 hours incubation): 0 cm

OC[C@@H](O)[C@@H](O)[C@H](O)[C@H](O)CO [Mannitol]
trapping activity ([1]; 10 mM): 98% | % anti-radical protection ([1]; 0.182% (w/v)): 98%
